What is called melting point is the temperature of the solid-liquid transition.

The nature of one series: Titration (66% DMF). It counts as physicochemical. An excerpt:
Titration (66% DMF): pK=7.4, Apparent Mol. Wt.=463 (457 Calculated) Mass Spectral Analysis (FAB) m/z: 458 [(M+1)^+]

Compound `NC(=O)Cc1ccc(Oc2ccc(F)cc2)cc1` [Example 1, 4-(4-fluorophenoxy)phenylacetamide] showed a melting point of 170 to 171 °C.
On to `NC(=O)C(O)c1ccc(Oc2cccc(-c3ccccc3)c2)cc1OCCCCC(=O)[O-].[Na+]` (racemic) [Example 7, Sodium(RS)-2-(4-carboxybutoxy)-4-(3-phenylphenoxy)phenyl-2-hydroxyacetamide], for which the pK in the series “Titration (66% DMF)” was 7.4.
The compound `NC(=O)Cc1ccc(Oc2ccccc2)cc1` [Example 2, 4-phenoxyphenylacetamide] showed a melting point of 161 to 163 °C.
With `NC(=O)Cc1cccc(Oc2ccccc2)c1` [Example 3, 3-phenoxyphenylacetamide], the melting point was 115 to 117 °C.

The record behind these values is patent publication US6353128B1, “Phenyl acetamides as sPLA2 inhibitors” (Eli Lilly and Company, priority 1996, dated 2002).
